Measured values: patent US6407104B1, “Pyrrolo[1,2-a]pyrazine spla2 inhibitor” (Shionogi & Co., Ltd., priority 1998, dated 2002)

What was measured:
[1] = target: T1, recombinant human secretory phospholipase A2 (Homo sapiens, UniProt P14555); experiment: Inhibition Test of Human Secretory Phospholipase A2 (chromogenic assay); type: biochemical; settings: sPLA2 50 ng/well, 40° C., 30 minutes, OD 405 nm, 96 well microtiterplate
T1 sequence (P14555 21-144): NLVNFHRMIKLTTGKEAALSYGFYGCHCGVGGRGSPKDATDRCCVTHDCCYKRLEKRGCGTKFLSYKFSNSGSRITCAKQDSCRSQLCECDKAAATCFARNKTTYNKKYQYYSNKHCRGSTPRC
Excerpt: Test Example: Inhibition Test of Human Secretory Phospholipase A2
In order to identify and evaluate an inhibitor of recombinant human secretory phospholipase A2, the following chromogenic assay is utilized. The assay herein has been applied for high volume screening wherein 96 well microtiterplate is used. A general explanation for such assay is described in “Analysis of Human Synovial Fluid Phospholipase A2 on Short Chain Phosphatidylcholine-Mixed Micelles: Development of a Spectrophotometric Assay Suitable for a Micortiterplate Reader” (Analytical Biochemistry, 204, pp 190-197, 1992 by Laure. J. Reynolds. Lori L. Hughes and Edward A. Dennis: the disclosure of which is incorporated herein for reference.
pH 7.5 (adjusted with NaOH)
pH 4.5 (adjusted with acetic acid)
1 mg of sPLA2 is dissolved in 1 ml of an enzyme buffer. Thereafter, the solution is maintained at 4° C.
In the assay, 5 μl of the solution is diluted with 1995 μl of the reaction buffer to be used.
198 mg of 5,5′-dithiobis-2-[…] (manufactured by Wako Pure Chemicals) is dissolved in 100 ml of H2O
H 7.5 (adjusted with NaOH)
100 mg of racemic 1,2-bis(heptanoylthio)-1,2-dideoxy-sn-glycero-3-phospholylcholine is dissolved in 1 ml of chloroform.
624.9 mg of Triton-X 100 is dissolved in the reaction buffer.
Enzyme Reaction: for 1 Plate of Microtiterplate
1) 0.106 ml of the substrate solution is put in a centrifugal tube, and nitrogen gas is jetted to remove the solvent. 0.54 ml of Triton-X 100 is added thereto, the mixture is stirred, thereafter it is sonified in a bath type sonification to dissolve. To the resulting product are added 17.8 ml of the reaction buffer and 0.46 ml of DTNB, and 0.18 ml each of the admixture is poured to wells of the 96 well microtiterplate.
2) 10 μl of a test compound (or solvent blank) are added in accordance with alignment of plates which has been previously set.
3) Incubation is effected at 40° C. for 15 minutes.
4) 20μl of an enzyme solution (sPLA2) which has been previously diluted (50 ng/well) are added to start reaction (40° C., 30 minutes).
5) Changes in absorbancy for 30 minutes are measured by a plate reader, and inhibition activity was calculated (OD: 405 nm).
6) IC50 was determined by plotting log concentration with respect to inhibition values within 10% to 90% inhibiting range.

A melting point of 189 to 190 °C and an IC50 [1] of 703 nM were found for CCc1c(C(=O)C(N)=O)c2c(OCC(=O)OC)nc(C)cn2c1Cc1ccc(OC)cc1 [Compound I-33] in this work.

A melting point of 200 to 201.5 °C and an IC50 [1] of 26 nM were found for CCc1c(C(=O)C(N)=O)c2c(OCC(=O)O)nc(C)cn2c1Cc1ccc(OC)cc1 [Compound I-34] in this work.

A melting point of 179.5 to 181 °C and an IC50 [1] of 182 nM were found for CCc1c(C(=O)C(N)=O)c2c(OCC(=O)OC)nc(C)cn2c1Cc1cccc(F)c1 [Compound I-35] in this work.

A melting point of 190.5 to 193 °C and an IC50 [1] of 11 nM were found for CCc1c(C(=O)C(N)=O)c2c(OCC(=O)O)nc(C)cn2c1Cc1cccc(F)c1 [Compound I-36] in this work.

A melting point of 201 to 202 °C and an IC50 [1] of 726 nM were found for CCc1c(C(=O)C(N)=O)c2c(OCC(=O)OC)nc(CO)cn2c1Cc1ccccc1 [Compound I-37] in this work.

A melting point of 211 to 212 °C and an IC50 [1] of 33 nM were found for CCc1c(C(=O)C(N)=O)c2c(OCC(=O)O)nc(CO)cn2c1Cc1ccccc1 [Compound I-38] in this work.

A melting point of 190 to 191 °C and an IC50 [1] of 151 nM were found for CCc1c(C(=O)C(N)=O)c2c(OCC(=O)OC)nc(C(C)C)cn2c1Cc1ccccc1 [Compound I-39] in this work.

A melting point of 211 to 213 °C and an IC50 [1] of 12 nM were found for CCc1c(C(=O)C(N)=O)c2c(OCC(=O)O)nc(C(C)C)cn2c1Cc1ccccc1 [Compound I-40] in this work.

A melting point of 154 to 156 °C and an IC50 [1] of 107 nM were found for CCc1cn2c(Cc3ccccc3)c(CC)c(C(=O)C(N)=O)c2c(OCC(=O)OC)n1 [Compound I-41] in this work.

A melting point of 197 to 198 °C and an IC50 [1] of 10 nM were found for CCc1cn2c(Cc3ccccc3)c(CC)c(C(=O)C(N)=O)c2c(OCC(=O)O)n1 [Compound I-42] in this work.

A melting point of 203 to 205 °C and an IC50 [1] of 41 nM were found for CCc1c(C(=O)C(N)=O)c2c(OCC(=O)OC)nc(-c3ccccc3)cn2c1Cc1ccccc1 [Compound I-43] in this work.

A melting point of 233 to 234 °C and an IC50 [1] of 7 nM were found for CCc1c(C(=O)C(N)=O)c2c(OCC(=O)O)nc(-c3ccccc3)cn2c1Cc1ccccc1 [Compound I-44] in this work.

A melting point of 129 to 130 °C and an IC50 [1] of 117 nM were found for CCc1c(C(=O)C(N)=O)c2c(OCC(=O)OC)nc(CC(C)C)cn2c1Cc1ccccc1 [Compound I-45] in this work.

A melting point of 216 to 217 °C and an IC50 [1] of 10 nM were found for CCc1c(C(=O)C(N)=O)c2c(OCC(=O)O)nc(CC(C)C)cn2c1Cc1ccccc1 [Compound I-46] in this work.

A melting point of 178 to 180 °C and an IC50 [1] of 211 nM were found for CCc1c(C(=O)C(N)=O)c2c(OCC(=O)OC)nc(Cc3ccccc3)cn2c1Cc1ccccc1 [Compound I-49] in this work.

A melting point of 200 to 202 °C and an IC50 [1] of 17 nM were found for CCc1c(C(=O)C(N)=O)c2c(OCC(=O)O)nc(Cc3ccccc3)cn2c1Cc1ccccc1 [Compound I-50] in this work.

A melting point of 134.5 to 136 °C and an IC50 [1] of 61 nM were found for CCc1c(C(=O)C(N)=O)c2c(OCC(=O)OC)nc(C)cn2c1Cc1ccccc1-c1cccs1 [Compound I-51] in this work.

A melting point of 147 to 149 °C and an IC50 [1] of 59 nM were found for CCc1c(C(=O)C(N)=O)c2c(OCC(=O)OC)nc(C)cn2c1Cc1ccccc1C#Cc1ccccc1 [Compound I-53] in this work.

A melting point of 161 to 163 °C and an IC50 [1] of 32 nM were found for CCc1c(C(=O)C(N)=O)c2c(OCC(=O)OC)nc(C)cn2c1Cc1ccccc1Oc1ccccc1 [Compound I-55] in this work.

A melting point of 208 to 210 °C and an IC50 [1] of 6 nM were found for CCc1c(C(=O)C(N)=O)c2c(OCC(=O)O)nc(C)cn2c1Cc1ccccc1Oc1ccccc1 [Compound I-56, [7-Ethyl-3-methyl-8-oxamoyl-6-(2-phenyloxybenzyl)pyrrolo [1,2-a]pyrazin-1-yl]oxyacetic acid] in this work.

A melting point of 179.5 to 181 °C and an IC50 [1] of 57 nM were found for CCc1c(C(=O)C(N)=O)c2c(OCC(=O)OC)nc(C)cn2c1Cc1cccc(-c2ccc(C)s2)c1 [Compound I-63] in this work.

A melting point of 190.5 to 193 °C and an IC50 [1] of 6 nM were found for CCc1c(C(=O)C(N)=O)c2c(OCC(=O)O)nc(C)cn2c1Cc1cccc(-c2ccc(C)s2)c1 [Compound I-64] in this work.

A melting point of 167.5 to 169.5 °C and an IC50 [1] of 33 nM were found for CCc1c(C(=O)C(N)=O)c2c(OCC(=O)OC)nc(C)cn2c1Cc1ccccc1-c1ccc(C)cc1 [Compound I-69] in this work.

A melting point of 179.5 to 181.5 °C and an IC50 [1] of 5 nM were found for CCc1c(C(=O)C(N)=O)c2c(OCC(=O)O)nc(C)cn2c1Cc1ccccc1-c1ccc(C)cc1 [Compound I-70] in this work.

A melting point of 190 to 192 °C and an IC50 [1] of 901 nM were found for CCc1c(C(=O)C(N)=O)c2c(OCC(=O)OC)nc(C)cn2c1Cc1ccccc1C(=O)c1ccccc1 [Compound I-71] in this work.

A melting point of 131 to 133 °C and an IC50 [1] of 13 nM were found for CCc1c(C(=O)C(N)=O)c2c(OCC(=O)O)nc(C)cn2c1Cc1ccccc1C(=O)c1ccccc1 [Compound I-72] in this work.

A melting point of 215 to 217 °C and an IC50 [1] of 129 nM were found for CCc1c(C(=O)C(N)=O)c2c(OCC(=O)OC)nc(C)cn2c1Cc1ccccc1CCc1ccccc1 [Compound I-73] in this work.

A melting point of 189 to 191 °C and an IC50 [1] of 6 nM were found for CCc1c(C(=O)C(N)=O)c2c(OCC(=O)O)nc(C)cn2c1Cc1ccccc1CCc1ccccc1 [Compound I-74] in this work.

A melting point of 210 to 211.5 °C and an IC50 [1] of 1460 nM were found for COC(=O)COc1nc(C)cn2c(Cc3ccccc3)c(C3CC3)c(C(=O)C(N)=O)c12 [Compound I-75] in this work.

A melting point of 194.5 to 196 °C and an IC50 [1] of 29 nM were found for Cc1cn2c(Cc3ccccc3)c(C3CC3)c(C(=O)C(N)=O)c2c(OCC(=O)O)n1 [Compound I-76] in this work.

A melting point of 179 to 182.5 °C and an IC50 [1] of 1380 nM were found for COC(=O)COc1nc(C)cn2c(Cc3ccc(F)cc3)c(C3CC3)c(C(=O)C(N)=O)c12 [Compound I-77] in this work.

A melting point of 185 to 187 °C and an IC50 [1] of 60 nM were found for Cc1cn2c(Cc3ccc(F)cc3)c(C3CC3)c(C(=O)C(N)=O)c2c(OCC(=O)O)n1 [Compound I-78] in this work.

A melting point of 193 to 194 °C and an IC50 [1] of 62 nM were found for CCc1c(C(=O)C(N)=O)c2c(OCC(=O)OC)nc(C3CCCCC3)cn2c1Cc1ccccc1 [Compound I-79] in this work.

A melting point of 227 to 230 °C and an IC50 [1] of 6 nM were found for CCc1c(C(=O)C(N)=O)c2c(OCC(=O)O)nc(C3CCCCC3)cn2c1Cc1ccccc1 [Compound I-80] in this work.

A melting point of 161.5 to 162.5 °C and an IC50 [1] of 201 nM were found for CCc1c(C(=O)C(N)=O)c2c(OCC(=O)OC)nc(C3CCCCC3)cn2c1Cc1ccccc1-c1ccccc1 [Compound I-81] in this work.

A melting point of 200 to 201.5 °C and an IC50 [1] of 5 nM were found for CCc1c(C(=O)C(N)=O)c2c(OCC(=O)O)nc(C3CCCCC3)cn2c1Cc1ccccc1-c1ccccc1 [Compound I-82] in this work.

A melting point of 205 to 207 °C and an IC50 [1] of 116 nM were found for COC(=O)COc1nc(C)cn2c(Cc3ccccc3)c(C)c(C(=O)C(N)=O)c12 [Compound I-83] in this work.

A melting point of 199.5 to 201 °C and an IC50 [1] of 8 nM were found for Cc1cn2c(Cc3ccccc3)c(C)c(C(=O)C(N)=O)c2c(OCC(=O)O)n1 [Compound I-84] in this work.

A melting point of 203 to 204 °C and an IC50 [1] of 370 nM were found for CCc1c(C(=O)C(N)=O)c2c(OCC(=O)OC)nc(C)cn2c1Cc1ccc(C)s1 [Compound I-85] in this work.

A melting point of 216.5 to 218 °C and an IC50 [1] of 11 nM were found for CCc1c(C(=O)C(N)=O)c2c(OCC(=O)O)nc(C)cn2c1Cc1ccc(C)s1 [Compound I-86] in this work.

A melting point of 186 to 187 °C and an IC50 [1] of 129 nM were found for CCc1c(C(=O)C(N)=O)c2c(OCC(=O)OC)nc(C)cn2c1Cc1csc2ccccc12 [Compound I-87] in this work.

A melting point of 211 to 213 °C and an IC50 [1] of 8 nM were found for CCc1c(C(=O)C(N)=O)c2c(OCC(=O)O)nc(C)cn2c1Cc1csc2ccccc12 [Compound I-88] in this work.

A melting point of 184 to 186 °C and an IC50 [1] of 315 nM were found for CCOC(=O)COc1nc(C)cn2c(Cc3ccc(F)cc3)c(CC)c(C(=O)C(N)=O)c12 [Compound I-89] in this work.

A melting point of 172 to 173 °C and an IC50 [1] of 38 nM were found for CCOC(=O)COc1nc(C)cn2c(Cc3ccccc3-c3ccc(F)cc3)c(CC)c(C(=O)C(N)=O)c12 [Compound I-90] in this work.

A melting point of 160 to 161 °C and an IC50 [1] of 48 nM were found for CCOC(=O)COc1nc(C)cn2c(Cc3ccccc3-c3cccs3)c(CC)c(C(=O)C(N)=O)c12 [Compound I-91] in this work.

A melting point of 185 to 186 °C and an IC50 [1] of 76 nM were found for CCOC(=O)COc1nc(C)cn2c(Cc3ccccc3-c3ccsc3)c(CC)c(C(=O)C(N)=O)c12 [Compound I-92] in this work.

A melting point of 182 to 183 °C and an IC50 [1] of 282 nM were found for CCCOC(=O)COc1nc(C)cn2c(Cc3ccc(F)cc3)c(CC)c(C(=O)C(N)=O)c12 [Compound I-93] in this work.
